Assay results: US10011877B2, “Treatment of bladder cancer to overcome chemoresistance” (Genedia Biotech Co., Ltd., priority 2015, dated 2018)

Columns and labels:
[1] = system: 5637 cell-derived tumor xenograft; assay: 5637-derived tumor xenografts in nude mice, tumor weight day 25; assay type: in vivo, BALB/c male nude mice; conditions: 5637 tumors, Pa 45 ug/mouse intraperitoneal once in 2 days
Source text: (§1) Animal experiments were undertaken in accordance with the National Institutes of Health Guide for the Care and Use of Laboratory Animals. BALB/c male nude mice aged of 8-12 weeks were used for this study. 5637 or H-bc cells were embedded in BD Matrigel Matrix (Becton, Dickinson, Franklin Lakes, N.J., USA) and subcutaneously injected into the four sites at the back of mice as following: 1.7×10^7 cells/site for 5637, 0.7×10^7 cells/site for H-bc, 4 sites/mouse, 6 mice for 5637, 6 mice for H-bc, respectively. From the fourth day after cell injection, all 5637-generated tumors were intratumorally injected with 2 nM miR-193a-3p agomiR or miR-193a-5p agomiR, while H-bc-generated tumors were injected with 4 nM miR-193a-3p/-5p/Mock antagomiR/PBS in a similar manner. From the sixth day after cell injection, three mice from 5637 and three from H-bc intraperitoneally received Pa (45 ug/mouse) once in 2 days. The remaining six mice (three from 5637 and three from H-bc) received PBS as a mock treatment control. Mice were humanely killed on day 25, and the tumors were weighed and photographed. The tumor weight was described as the mean±S.D.
(§2) Animal experiments were undertaken in accordance with the National Institutes of Health Guide for the Care and Use of Laboratory Animals. BALB/c male nude mice of 8-12 weeks of age were used for this study. […]

[2] = system: H-bc-derived tumor xenografts; assay: H-bc-derived tumor xenografts in nude mice, tumor weight day 25; assay type: in vivo, BALB/c male nude mice; conditions: H-bc tumors, Pa 45 ug/mouse intraperitoneal once in 2 days
Source text: as §1, §2

## CC(=O)O[C@H]1C(=O)[C@@]2(C)[C@H]([C@H](OC(=O)c3ccccc3)[C@]3(O)C[C@H](OC(=O)[C@H](O)[C@@H](NC(=O)c4ccccc4)c4ccccc4)C(C)=C1C3(C)C)[C@]1(OC(C)=O)CO[C@@H]1C[C@@H]2O [Pacilitaxol, Paclitaxel]
[1]
  tumor weight ratio of the Pa treated over PBS treated: 0.283
[2]
  tumor weight ratio of the Pa treated over PBS treated: 0.40
